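Assay format: 96-well plates, 48-hour exposure. GI50 is the concentration that inhibits growth by half. The concentration for full growth arrest is given as TGI.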
How the values were obtained:
Test in all cases: NCI tumour cell line growth inhibition, 48 h
NCI/ADR-RES ovarian = tested on: NCI/ADR-RES ovarian
UACC-257 melanoma = tested on: UACC-257 melanoma
NCI-H23 lung = tested on: NCI-H23 lung
M14 melanoma = tested on: M14 melanoma
MDA-MB-231 breast = tested on: MDA-MB-231 breast
T-47D breast = tested on: T-47D breast
UO-31 renal = tested on: UO-31 renal
OVCAR-8 ovarian = tested on: OVCAR-8 ovarian
CAKI-1 renal = tested on: CAKI-1 renal
KM12 colon = tested on: KM12 colon

## CC(C)(C)c1ccc(NS(=O)(=O)c2ccc3nc(NC(=O)c4cnccn4)[nH]c3c2)cc1
NCI/ADR-RES ovarian
  GI50: 1.92 µM
  TGI: 8.59 µM
UACC-257 melanoma
  GI50: 10.8 µM
  TGI: 26 µM
NCI-H23 lung
  GI50: 3.19 µM
  TGI: 15.4 µM
M14 melanoma
  GI50: 2.42 µM
  TGI: 17.6 µM
MDA-MB-231 breast
  GI50: 4.34 µM
  TGI: 17.1 µM
T-47D breast
  GI50: 4.37 µM
  TGI: 23.7 µM
UO-31 renal
  GI50: 2.08 µM
  TGI: 10.7 µM
OVCAR-8 ovarian
  GI50: 5.78 µM
  TGI: 38.8 µM
CAKI-1 renal
  GI50: 4.64 µM
  TGI: 17.5 µM
KM12 colon
  GI50: 2.16 µM
  TGI: 13.9 µM

## COc1ccc(Cn2cc3c(c2-c2cc(OC)c(OC)c(OC)c2)CCc2cnoc2-3)cc1
NCI/ADR-RES ovarian
  GI50: 0.242 µM
  TGI: > 100 µM
UACC-257 melanoma
  TGI: > 100 µM
NCI-H23 lung
  GI50: 0.388 µM
  TGI: > 100 µM
M14 melanoma
  GI50: 0.216 µM
  TGI: 0.87 µM
MDA-MB-231 breast
  GI50: 0.735 µM
  TGI: > 100 µM
T-47D breast
  GI50: 0.82 µM
  TGI: > 100 µM
UO-31 renal
  GI50: 0.542 µM
  TGI: > 100 µM
OVCAR-8 ovarian
  GI50: 0.485 µM
  TGI: > 100 µM
CAKI-1 renal
  GI50: 0.334 µM
  TGI: > 100 µM
KM12 colon
  GI50: 0.281 µM
  TGI: > 24.1 µM

## Cc1cc(C(=O)c2ccccc2)c(C)c2c1[nH]c1ccc(Cl)cc12
NCI/ADR-RES ovarian
  GI50: 0.0485 µM
  TGI: > 100 µM
UACC-257 melanoma
  GI50: 4.48 µM
  TGI: 79.6 µM
NCI-H23 lung
  GI50: 0.101 µM
  TGI: > 47 µM
M14 melanoma
  GI50: 0.0456 µM
  TGI: > 41.7 µM
MDA-MB-231 breast
  GI50: 0.255 µM
  TGI: 5.71 µM
T-47D breast
  GI50: 0.0447 µM
  TGI: > 87.2 µM
UO-31 renal
  GI50: 0.102 µM
  TGI: 14.1 µM
OVCAR-8 ovarian
  GI50: 0.148 µM
  TGI: > 100 µM
CAKI-1 renal
  GI50: 0.0521 µM
  TGI: 6.05 µM
KM12 colon
  GI50: 0.045 µM
  TGI: 7.23 µM

## COc1cc(NC(=O)C2=C(N3CCOCC3)/C(=C/c3ccc(Cl)cc3)CC2)cc(OC)c1OC
NCI/ADR-RES ovarian
  GI50: 42.5 µM
  TGI: > 100 µM
UACC-257 melanoma
  GI50: > 100 µM
  TGI: > 100 µM
NCI-H23 lung
  GI50: 48.8 µM
  TGI: > 100 µM
M14 melanoma
  GI50: > 100 µM
  TGI: > 100 µM
MDA-MB-231 breast
  GI50: 26.5 µM
  TGI: > 100 µM
T-47D breast
  GI50: > 100 µM
  TGI: > 100 µM
UO-31 renal
  GI50: 20.8 µM
  TGI: > 100 µM
OVCAR-8 ovarian
  GI50: 19.5 µM
  TGI: > 100 µM
CAKI-1 renal
  GI50: 23 µM
  TGI: > 100 µM
KM12 colon
  GI50: > 100 µM
  TGI: > 100 µM

## O=C1C(Cl)=C(Nc2cccc(C(F)(F)F)c2)C(=O)N1Cc1ccc(Cl)cc1
NCI/ADR-RES ovarian
  GI50: < 0.0431 µM
  TGI: 12.3 µM
UACC-257 melanoma
  GI50: 6.59 µM
  TGI: 22.2 µM
NCI-H23 lung
  GI50: 0.162 µM
  TGI: 8.01 µM
M14 melanoma
  GI50: 1.34 µM
  TGI: 18.5 µM
MDA-MB-231 breast
  GI50: 0.207 µM
  TGI: 8.74 µM
T-47D breast
  GI50: 2.11 µM
  TGI: 30.8 µM
UO-31 renal
  GI50: 1.11 µM
  TGI: 33.8 µM
OVCAR-8 ovarian
  GI50: 0.699 µM
  TGI: 23.3 µM
CAKI-1 renal
  GI50: 0.289 µM
  TGI: 16.4 µM
KM12 colon
  GI50: 2.35 µM
  TGI: 19.6 µM

## Cc1ccc(-c2cc(O)c(-c3ccc(C)cc3C)cc2O)c(C)c1
NCI/ADR-RES ovarian
  GI50: 4.5 µM
  TGI: 32.9 µM
UACC-257 melanoma
  GI50: 5.81 µM
  TGI: 19.1 µM
NCI-H23 lung
  GI50: 7.43 µM
  TGI: 26.2 µM
M14 melanoma
  GI50: 6.58 µM
  TGI: 19.9 µM
MDA-MB-231 breast
  GI50: 3.94 µM
  TGI: 21 µM
T-47D breast
  GI50: 5.24 µM
  TGI: 42.9 µM
UO-31 renal
  GI50: 4.96 µM
  TGI: 22.4 µM
OVCAR-8 ovarian
  GI50: 4.04 µM
  TGI: 22.2 µM
CAKI-1 renal
  GI50: 3.41 µM
  TGI: 34.3 µM
KM12 colon
  GI50: 8.2 µM
  TGI: 26.8 µM
